Values joined by “and” are separate entries in the source; they are usually repeats but may differ in a detail not shown here. Equal entries are not always repeated.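 Growth conditions: 96-well plates. Treatment: test compound, 48 hours, 5 concentrations. Analysis: linear interpolation between bracketing concentrations; unreached endpoints set to highest concentration. Abbreviation: GI50, concentration required for 50% inhibition of growth. The concentration for full growth arrest is given as TGI.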

For one experiment, the system named is BT-549 breast. In words: NCI anticancer screen, dose series, 48 h.
Turning to `COc1cc(-c2csc(NC(=O)c3cc(C(F)(F)F)cc(C(F)(F)F)c3)n2)cc(OC)c1OC`, the GI50 was 2.16 µM and the TGI was found to be 6.66 µM. As for `CC[N+]1(C)CCC(O)(c2ccc(C)cc2)C(C(=O)c2ccc(C)cc2)C1` (stereo not drawn), the TGI is more than 100 µM.

Turning to `CC(=O)c1cccc(N(/C=C/C(=O)C(F)(F)F)CC(=O)c2ccc(Cl)cc2)c1`, the GI50 was more than 100 µM and the TGI was more than 100 µM. In the case of `COc1ccc(Cl)cc1Nc1nc(C(F)(F)F)ccc1C(=O)NN`, the GI50 was 2.13 µM and the TGI is more than 100 µM. Turning to `CC(C)c1ccc2nc3ccc(C(=O)NCCN(C)C)cn3c(=O)c2c1`, the TGI was 29.6 µM. In the case of `C#C[C@]1(O)CC[C@H]2[C@@H]3CC=C4c5nc(Nc6ccccn6)sc5CC[C@]4(C)[C@H]3CC[C@@]21C`, the GI50 was 0.692 µM and the TGI is 2.82 µM. The like results for `CSc1ccc(C2=Nn3c(nnc3-c3ccc(F)c(Cl)c3)SC2)cc1` were, in that order, 12.8 µM and 50.5 µM.

On to `CNC(=O)Nc1ccc(-c2nc(N3CCOCC3)nc3c2cnn3C2CCOCC2)cc1`, for which the GI50 is 0.132 µM and the TGI stood at 2.08 µM. In the case of `O=c1oc2ccccc2c(O)c1C=NC(=S)c1ccncc1`, the TGI was 94 µM. Still for that read-out and setting: the same measure for `NCCCCNCCCNC(=O)CNC(=O)CC(O)C(N)CCCC(NC(=O)C(CN)NC(=O)C(O)CNC(=O)CC(N)c1ccc(O)cc1)C(=O)O` (stereo not drawn): more than 10 µM. Take `N/C(=N\OC(=O)c1ccccc1)C(C(=O)NOC(=O)c1ccccc1)C1CCCCC1` (stereo not drawn): the GI50 was 3.98 µM and the TGI came out at 15.1 µM.

For `CCOc1ccc(N=Nc2ccc3cc(/C(C)=N/NC(=O)/C(C#N)=C\c4ccc(N(CCC#N)CCC#N)cc4)c(=O)oc3c2)cc1`, the TGI is more than 10 µM.

With `O=C(O)c1cc[c]([Hg][S]c2ncnc3nc[nH]c23)cc1`, the GI50 is 8.12 µM and the TGI was 21.6 µM. For the molecule `CC(C)(C)OC(=O)NCC(C#N)CNC(=O)OC(C)(C)C`, the TGI was more than 100 µM. As to `O=C(Nc1ccc(OC(F)(F)F)cc1)c1sccc1NCc1ccnc2ccccc12`, the GI50 was 6.9 µM and the TGI was 51.5 µM.

On to `Nc1cc(N)c2nc(-c3ccccc3)c(Oc3ccc(F)cc3)nc2c1`, for which the GI50 is 15 µM and the TGI is 34.8 µM. For the molecule `COc1ccc(-c2cc(-c3ccc(Cl)cc3)c(C#N)c(=O)n2CCCCC(=O)Nc2ccccc2N)cc1`, the GI50 was 4.71 µM and the TGI was 31.9 µM. `CN1CCCN(CCNc2nccc(-c3c(-c4cccc(O)c4)nc4sccn34)n2)S1(=O)=O`: the GI50 is 9.2 µM and 12.3 µM; the TGI was 58.8 µM and > 78.4 µM.

Consider `CCOC(=O)c1c(NC(=O)c2ccc(C(C)C)cc2)sc2c(CN(C)C)c(O)ccc12`, for which the GI50 was 2.18 µM and the TGI was 5.35 µM. For `COc1ccc(C(=O)N2c3ccccc3Sc3ccccc32)c(F)c1` the same measures were 0.676 µM and more than 100 µM. For `CC1(C)N=C(N)N=C(N)N1c1ccc(CCc2ccccc2)c(Cl)c1` the same measures were 1.11 µM and 12.5 µM.

In the case of `Cc1ccc(C(=O)Nc2ccc(CN3CCN(C)CC3)c(C(F)(F)F)c2)cc1C#Cc1cnc(N)c2ccc(F)cc12`, the GI50 was 1.31 µM and the TGI came out at 4.33 µM. In turn, `CC1(C)CCC(C)(C)c2cc(C(=O)Nc3ccc(C(=O)O)cc3)ccc21` registered a TGI of 73 µM. Still for that read-out and setting: the same measure for `CC1=C(C(=O)NC2CCCCC2)CC(C(=O)NC2CCCCC2)=C(C)N1`: more than 100 µM; for `Cc1ccc(C(=O)Cc2nc3c([nH]c2=O)c(C)nn3-c2ccccc2)c(C)c1`: more than 10 µM; for `Clc1ccccc1NN(Cc1ccccn1)c1ccccc1Cl`: 56 µM.

For the molecule `Cn1cc(C2=C(c3cn(C)c4ccc(N)cc34)C(=O)NC2=O)c2ccccc21`, the GI50 was 7.12 µM and the TGI was more than 25 µM.

Regarding `Cc1cc2c(C(C)C)c(O)c(O)c(C=Nc3cc(C(F)(F)F)ccc3Cl)c2c(O)c1-c1c(C)cc2c(C(C)C)c(O)c(O)c(C=Nc3cc(C(F)(F)F)ccc3Cl)c2c1O`, the TGI amounted to 77.6 µM. Consider `S=C(N/N=C/c1cc(Cl)cc(Cl)c1)NC12CC3CC(CC(C3)C1)C2`, for which the GI50 is more than 100 µM and the TGI is more than 100 µM. For `CCCCN1C(=O)CC2[C@@H]3CCc4cc(OC)ccc4C3CC[C@]2(C)C1=O` (stereo partly drawn), the TGI was more than 10 µM. On the same count and under the same terms, the same measure for `CC(CO)[C@H]1OC(=O)C=C2[C@@]13O[C@@H]3[C@H]1OC(=O)[C@@]3(C)[C@H]4O[C@H]4C[C@@]2(C)[C@@H]13` (stereo partly drawn): 8.2 µM.

Regarding `COc1cc2cc(Oc3ccc(NC(=O)c4cccc(C(F)(F)F)c4)cc3)c(C)nc2cc1OC`, the GI50 was 3.31 µM and the TGI was more than 100 µM.

`COc1cc(/C=C2\CN(C)CC3=C2Nc2nc(SC)[nH]c(=O)c2C3c2cc(OC)c(OC)c(OC)c2)cc(OC)c1OC` (stereo not drawn): the GI50 is 2.98 µM and the TGI stood at 8.12 µM. Molecule `COc1cc(-c2oc3ccccc3c(=O)c2O)cc(OC)c1OC` displayed a TGI of more than 100 µM. With `C/C(=N\O)c1ccc(Nc2cc(-n3nnc4ccccc43)nc3ccccc23)cc1`, the GI50 is 3.77 µM and the TGI was 14.8 µM. For `C[C@]12CC[C@@H]3c4ccc(O)c([N+](=O)[O-])c4CC[C@H]3[C@@H]1CC[C@@H]2NS(=O)(=O)c1ccc(C(F)(F)F)cc1` the same measures were 1.57 µM and 3.03 µM. `Clc1ccc(COC(Cn2ccnc2)c2ccc(Cl)cc2Cl)cc1` (stereo not drawn): the GI50 was 2.48 µM; the TGI is 6.63 µM and 35.3 µM and 30.4 µM. `COC(=O)C1=C(OC(=O)c2ccc(Cl)cc2)C(C(=O)OC)[C@@]2(O)[C@@H](C(=O)OC)C(c3ccccc3C(F)(F)F)C[C@@H]1[C@@H]2C(=O)OC` (stereo partly drawn): the GI50 is 4.16 µM and the TGI amounted to 63.6 µM. On to `Nc1c(C(=O)Nc2ccc([As](=O)(O)O)cc2)cnc2nnnn12`, for which the TGI is more than 100 µM. Regarding `CC(C)n1c(/C=C/[C@@H](O)C[C@@H](O)CC(=O)O)c(-c2ccc(F)cc2)c2ccccc21`, the GI50 is 5.8 µM and 4.63 µM; the TGI is more than 77.6 µM. With `CCOc1ccc(NCC2CC/C(=C\C=C\c3ccccc3)C2=O)cc1` (stereo not drawn), the TGI is 33 µM. Turning to `Cc1cc(N(CCNc2ccnc3cc(Cl)ccc23)Cc2ccc3c(c2)OCO3)nc(N2CCN(C)CC2)n1`, the GI50 is 2.17 µM and the TGI was 5.54 µM. As to `N#Cc1ccc(-c2nc(C#N)c(N)o2)cc1`, the TGI was more than 10 µM.

In a further experiment the test system is DMS 114 small cell lung. The experiment in a line: NCI anticancer screen, dose series, 48 h.
On to `O=C1c2ccccc2N2OC3(N4CCCC4)CCCC3C12c1ccccc1` (stereo not drawn), for which the TGI is more than 100 µM. Still for that read-out and setting: the value for `COc1ccc(C2C(Cl)C(=O)N2n2cnc3ccccc3c2=O)cc1OC` (stereo not drawn) was more than 100 µM; that for `CCC1(Br)C(=O)NC(=O)N(C2CC(O)C(CO)O2)C1N=[N+]=[N-]` (stereo not drawn) was more than 100 µM. Still for that read-out and setting: the same measure for `N=C(N)SCc1cn2ccccc2n1`: more than 100 µM. Take `Clc1ccc([O][In]([O]c2ccc(Cl)cn2)[O]c2ccc(Cl)cn2)nc1`: the GI50 was more than 100 µM and the TGI is more than 100 µM. As to `COC(=O)C1=CCON(c2ccccc2)C1c1ccccc1` (stereo not drawn), the TGI is more than 100 µM.

`COC(=O)c1nc(NN)[nH]c(=O)c1CCCCCc1c(C(=O)OC)[nH]c(NN)cc1=O` displayed a TGI of more than 100 µM. Still for that read-out and setting: the value for `CC1(C)C(=O)C(O)=CC2C1=CCC1C2(C)C(=O)CC2(C)C(C(C)(O)C(=O)CC(O)C(C)(C)O)C(O)CC12C` (stereo not drawn) was 45.9 µM. With `COc1cc(C2c3cc4c(cc3[C@@H](Nc3ccc(N(C)C)cc3)[C@H]3COC(=O)C23)OCO4)cc(OC)c1O` (stereo partly drawn), the GI50 is 0.596 µM; the TGI was 2.95 µM and 3.2 µM. For `O=c1nc(-c2ccccc2)c2c3c(cccn13)CCC2`, the TGI was more than 100 µM. The same measure, in the same setting: the same measure for `COc1ccc([C@H]2CC(=O)N3CCCC3N2)cc1` (stereo partly drawn): more than 100 µM. On the same count and under the same terms, the same measure for `O=C(c1ccccc1)c1c(CC(O)c2cccnc2)n(C(=O)c2ccccc2)c2ccccc12` (stereo not drawn): 74.2 µM. `COc1ccc(C(C2=C(C)C(=O)c3ccccc3C2=O)c2ccc(C(C)C)cc(=O)c2O)cc1` (stereo not drawn): the TGI stood at 8.54 µM. Same read-out and setting: the same measure for `CC(C)N(C(=O)C12C3C4C1C1C2C3C41C(O)C(C)(C)C)C(C)C` (stereo not drawn): more than 50 µM; for `N#CC(C#N)SCc1ccccc1`: 60.1 µM.

The subject of another experiment is DMS 273 small cell lung. The experiment in a line: NCI anticancer screen, dose series, 48 h.
`O=C1c2ccccc2N2OC3(N4CCCC4)CCCC3C12c1ccccc1` (stereo not drawn) came in with a TGI of more than 100 µM. Same read-out and setting: the same measure for `COc1ccc(C2C(Cl)C(=O)N2n2cnc3ccccc3c2=O)cc1OC` (stereo not drawn): more than 100 µM.

Values taken from PubChem BioAssay (NCI).
